Results: patent US20160022720A1, “COMPOSITIONS AND METHODS FOR TREATING DISEASE STATES ASSOCIATED WITH ACTIVATED T CELLS AND/OR B CELLS” (priority 2013, published 2016)
“Also recorded” adds a separate entry of the source.

Experiments:
activated T cells [1] = test system: activated T cells; design: species or system mice; settings: mouse
activated T cells (P14) = format: cell-based, mice; settings: for killing of activated T cells in vitro: agent itself, overnight culture
activated T cells [2] = format: cell-based, mice; settings: culture of activated T cells with agent
[3] = test system: LCMV-infected prf−/− mice; settings: mouse, in vivo
[4] = test system: reactivated memory T cells; assay: Depletion of memory T cells reactivated in vivo with liposomal GP33 peptide in WT mice; settings: etoposide 100 mg/kg/dose x2, or etoposide 25 mg/kg/dose + nutlin 50 mg/kg x4
[5] = test system: experimental autoimmune encephalitis; settings: in vivo
HLH = HLH patients, etoposide-based therapy, increased from approximately 0%; cited from earlier work

Structure (SMILES)	potentiation of etoposide killing of activated T cells in vitro (activated T cells (P14))	killing of activated T cells in vitro (activated T cells (P14))	further results
NC(=O)Nc1cc(-c2cccc(F)c2)sc1C(=O)N[C@H]1CCCNC1 [AZD7762]	potentiate etoposide killing of activated T cells in vitro	kill activated T cells in vitro; also recorded: selectively kill activated T cells	potentiation of low dose etoposide for depletion of activated T cells in vivo (activated T cells [1]): strongly synergizes with etoposide in vivo; DNA damage (gammaH2AX) in activated T cells in vitro (activated T cells [2]): leads to accumulation of spontaneous DNA damage; also recorded: led to increasing DNA damage
NC(=O)C1CCCc2c1[nH]c1ccc(Cl)cc21 (stereo not drawn) [Ex527]	enhance etoposide killing of activated T cells in vitro		
C=CCn1c(=O)c2cnc(Nc3ccc(N4CCN(C)CC4)cc3)nc2n1-c1cccc(C(C)(C)O)n1 [MK-1775]	potentiate etoposide killing of activated T cells in vitro	selectively kill activated T cells	
O=C1C(Cl)=C(N2CCOCC2)C(=O)N1c1ccc(Cl)c(Cl)c1 [Ri-1, 3-chloro-1-(3,4-dichlorophenyl)-4-morpholino-1H-pyrrole-2,5-dione]	substantial synergy with etoposide in vitro	kill activated T cells in vitro	
CCOc1cc(/C=C2/C(=O)N(c3ccccc3)N=C2C)cc(Cl)c1OCC(=O)OC [Sj-172550]	enhance etoposide killing of activated T cells in vitro		
COc1cc([C@@H]2c3cc4c(cc3[C@@H](O[C@@H]3O[C@@H]5CO[C@@H](C)O[C@H]5[C@H](O)[C@H]3O)[C@H]3COC(=O)[C@H]23)OCO4)cc(OC)c1O [etoposide]			inflammatory cytokines/disease-specific inflammatory markers [3]: decreased inflammatory cytokines/disease-specific inflammatory markers; pancytopenia [3]: alleviated pancytopenia; survival / rescue from HLH-like disease [3]: allowed survival; also recorded: rescues LCMV-infected prf−/− mice from HLH-like disease; depletion of reactivated memory T cells in vivo [4]: ablated; therapeutic effect in experimental autoimmune encephalitis [5]: highly therapeutic; long-term survival (HLH): 55%
COc1ccc(C2=NC(c3ccc(Cl)cc3)C(c3ccc(Cl)cc3)N2C(=O)N2CCNC(=O)C2)c(OC(C)C)c1 (stereo not drawn) [nutlin]	dramatically shifts the etoposide:death, dose:response curve		potentiation of low dose etoposide for depletion of activated T cells in vivo (activated T cells [1]): potentiates etoposide immunomodulation in vivo
